Data from patent publication US10508089B2, “Use of N-(1,3,4-Oxadiazol-2-yl)arylcarboxamides or their salts for controlling unwanted plants in areas of transgenic crop plants being tolerant to HPPD inhibitor herbicides” (BASF SE, priority 2014, dated 2019).

Experiments:
[1] = biological target: PfHPPD Evo 40 SEQ ID No 27 (Pseudomonas sp., UniProt P80064, A172V/A339E/A53E/D148E/D45N/E105D/E287Q/E300V/E334P/F143Y/G286D/G335S/H150N/H254A/H63N/I158V/I187A/I249V/K92N/L18F/N24G/N280D/S245T/S257K/S301E/T205S/V65I); experiment: biochemical; set-up: species or system Pseudomonas fluorescens
Sequence of PfHPPD Evo 40 SEQ ID No 27 (P80064 1-354 with tags or gaps with the stated changes limits assumed): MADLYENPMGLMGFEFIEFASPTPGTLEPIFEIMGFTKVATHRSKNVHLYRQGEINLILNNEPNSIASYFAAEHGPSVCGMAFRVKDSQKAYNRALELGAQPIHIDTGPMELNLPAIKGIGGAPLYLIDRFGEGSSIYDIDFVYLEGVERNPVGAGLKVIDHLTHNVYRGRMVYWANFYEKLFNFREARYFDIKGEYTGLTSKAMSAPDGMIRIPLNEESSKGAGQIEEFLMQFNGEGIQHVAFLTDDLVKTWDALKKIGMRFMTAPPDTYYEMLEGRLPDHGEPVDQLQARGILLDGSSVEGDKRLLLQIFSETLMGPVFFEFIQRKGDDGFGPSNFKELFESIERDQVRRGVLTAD

[2] = biological target: PfHPPD Evo 41 SEQ ID No 29 (Pseudomonas sp., UniProt P80064, A172V/A339Q/A53E/D148E/D45N/E105D/E287Q/E300V/E334P/F143Y/G286D/G335W/H150N/H254A/H63N/I158V/I187A/I249V/K338A/K92N/L18F/N24G/N280D/S245T/S257K/S301E/T205S/V65I); experiment: biochemical; set-up: species or system Pseudomonas fluorescens
Sequence of PfHPPD Evo 41 SEQ ID No 29 (P80064 1-354 with tags or gaps with the stated changes limits assumed): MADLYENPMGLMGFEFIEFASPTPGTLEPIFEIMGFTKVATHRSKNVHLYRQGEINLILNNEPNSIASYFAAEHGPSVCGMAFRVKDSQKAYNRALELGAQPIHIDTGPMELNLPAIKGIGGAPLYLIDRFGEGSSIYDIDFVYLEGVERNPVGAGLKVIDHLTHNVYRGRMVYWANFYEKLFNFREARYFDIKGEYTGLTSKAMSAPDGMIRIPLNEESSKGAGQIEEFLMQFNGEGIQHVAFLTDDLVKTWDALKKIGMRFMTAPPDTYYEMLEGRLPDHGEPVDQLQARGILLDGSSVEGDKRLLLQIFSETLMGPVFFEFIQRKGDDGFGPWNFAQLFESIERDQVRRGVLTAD

FMP 37 SEQ ID No 9 = FMP 37 SEQ ID No 9 (Blepharisma japonicum, UniProt A8R3H6); experiment: Determination of HPPD activity in presence of N-(1,3,4-Oxadiazol-2-yl)arylcarboxamides (pI50); type: biochemical; conditions: negative log of molar concentration; inhibitor 0.1 to 100 μM; room temperature; 600 μM HPP
Sequence of FMP 37 SEQ ID No 9 (A8R3H6 entry or part of it): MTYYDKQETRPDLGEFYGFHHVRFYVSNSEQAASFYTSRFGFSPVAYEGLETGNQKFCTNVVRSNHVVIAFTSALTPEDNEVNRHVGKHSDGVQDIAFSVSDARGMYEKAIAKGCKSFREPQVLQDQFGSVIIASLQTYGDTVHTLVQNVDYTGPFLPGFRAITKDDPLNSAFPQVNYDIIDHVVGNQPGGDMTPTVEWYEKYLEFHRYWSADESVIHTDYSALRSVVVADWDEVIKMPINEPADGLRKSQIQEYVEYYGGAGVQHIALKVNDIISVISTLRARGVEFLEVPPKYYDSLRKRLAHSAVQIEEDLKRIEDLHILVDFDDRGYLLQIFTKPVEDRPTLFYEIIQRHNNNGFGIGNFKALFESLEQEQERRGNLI
Procedure: (§1) HPPD activity was measured at room temperature by adding appropriate amounts of HPPD to a solution of 200 mM Tris-HCl pH 7.6, 10 mM ascorbate, 20 μM FeSO4, 650 units of catalase, 8 μg HGA dioxygenase (HGA: homogentisate) and 600 μM HPP in a total volume of 1 ml. Initial reaction rates in the absence or presence of inhibitors were determined from the increase in absorbance at 318 nm due to the formation of maleylacetoacetate (ϵ318=11,900 M−1 cm−1). pI50-values (the negative log values of the concentration of inhibitor necessary to inhibit 50% of the enzyme activity in molar concentration were determined from dose-response plots of HPPD activity versus inhibitor concentrations tested (0.1 to 100 μM) using the 4 Parameter Logistic Model or Sigmoidal Dose-Response Model of the ID Business Solutions Ltd. XLfit software suite. Due to the UV absorption of the HPPD inhibitors tested, inhibitor concentrations >100 μM could not be tested. In cases, the symbol “>” is used this means that the value was far higher than the one indicated but could not be precisely calculated within in the range of concentration of inhibitor tested.
(§2) In the 1st column of Table 8, the chemical compound employed in the assay is named (according to the numbering of the Tables 1 to 7, above). In columns 2, 3, 4, and 5 the pI50-values of the corresponding chemical compounds against various HPPD enzymes (name and SEQ ID Nos are indicated, respectively) are given.

Avena HPPD SEQ ID No 2 = Avena HPPD SEQ ID No 2 (Avena sativa, UniProt A0ACD5V6K6); experiment: as above; type: biochemical; conditions: negative log of molar concentration; inhibitor 0.1 to 100 μM; room temperature; 600 μM HPP
Sequence of Avena HPPD SEQ ID No 2 (A0ACD5V6K6 entry or part of it): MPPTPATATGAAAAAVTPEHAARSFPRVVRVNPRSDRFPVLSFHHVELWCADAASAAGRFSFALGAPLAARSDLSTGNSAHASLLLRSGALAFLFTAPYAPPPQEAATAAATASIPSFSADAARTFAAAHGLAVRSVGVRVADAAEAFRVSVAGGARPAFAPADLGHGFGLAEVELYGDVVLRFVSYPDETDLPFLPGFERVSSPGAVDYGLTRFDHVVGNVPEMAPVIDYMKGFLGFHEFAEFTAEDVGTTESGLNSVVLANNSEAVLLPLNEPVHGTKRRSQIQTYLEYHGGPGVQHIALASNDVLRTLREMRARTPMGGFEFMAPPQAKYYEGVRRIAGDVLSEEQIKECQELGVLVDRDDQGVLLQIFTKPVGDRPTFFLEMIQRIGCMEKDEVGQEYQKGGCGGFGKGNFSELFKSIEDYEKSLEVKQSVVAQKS
Procedure: as §1, §2

[3] = test system: tolerant transgenic soybean shoots; experiment: Soybean transformation, selection of shoots with HPPD inhibitor; type: in vivo; conditions: compared with untreated wild-type soybean shoots
Text: (§3) Soybean transformation was achieved by using methods by best mode well known in the art, such as the one described using the Agrobacterium tumefaciens mediated transformation soybean half-seed explants using essentially the method described by Paz et al. (2006), Plant cell Rep. 25:206. Transformants were identified using various HPPD inhibitors tembotrione or isoxaflutole as selection marker. The appearance of green shoots can be observed, and documented as an indicator of tolerance to the respective herbicide.

wild-type soybean shoots = experiment: as above; type: in vivo; conditions: wild-type soybean shoots treated with the same amount of the respective HPPD inhibitor
Text: as §3

PfHPPDEvo40 = PfHPPDEvo40 (Pseudomonas sp., UniProt P80064, A172V/A339E/A53E/D148E/D45N/E105D/E287Q/E300V/E334P/F143Y/G286D/G335S/H150N/H254A/H63N/I158V/I187A/I249V/K92N/L18F/N24G/N280D/S245T/S257K/S301E/T205S/V65I); experiment: Brown color assay of HPPD extracts on solid media containing an HPPD inhibitor; conditions: 250 uM inhibitor in solid media

SMILES: Cc1nnc(NC(=O)c2ccc(C(F)(F)F)c(S(C)(=O)=O)c2Cl)o1 [Compound 2-361]
- IC50 [1]: 5.01 µM
- IC50 [2]: 7.94 µM
- IC50 (FMP 37 SEQ ID No 9): 12.6 µM
- IC50 (Avena HPPD SEQ ID No 2): 1.58 µM

SMILES: Cc1nnc(NC(=O)c2ccc(C(F)(F)F)c(-n3cccn3)c2Cl)o1 [Compound 2-363]
- IC50 [1]: 6.31 µM
- IC50 [2]: 12.6 µM
- IC50 (FMP 37 SEQ ID No 9): 10 µM
- IC50 (Avena HPPD SEQ ID No 2): 1.58 µM

SMILES: Cc1nnc(NC(=O)c2ccc(C(F)(F)F)c(OCCF)c2Cl)o1 [Compound 2-364]
- IC50 [1]: 12.6 µM
- IC50 [2]: 31.6 µM
- IC50 (FMP 37 SEQ ID No 9): 7.94 µM
- IC50 (Avena HPPD SEQ ID No 2): 1.58 µM

SMILES: CS(=O)(=O)c1cc(C(F)(F)F)ccc1C(=O)c1cnoc1C1CC1 [isoxaflutole]
- appearance of shoots under HPPD inhibitor selection [3]: normal greening
- appearance of shoots under HPPD inhibitor selection (wild-type soybean shoots): entirely bleached

SMILES: Cc1nnc(NC(=O)c2ccc(C(F)(F)F)c([S+](C)[O-])c2C)o1 (centres unmarked) [Compound 2-144]
- IC50 [1]: 6.31 µM
- IC50 [2]: 10 µM
- IC50 (FMP 37 SEQ ID No 9): 12.6 µM
- IC50 (Avena HPPD SEQ ID No 2): 3.98 µM

SMILES: Cc1nnc(NC(=O)c2ccc(C(F)(F)F)c([S+](C)[O-])c2Cl)o1 (centres unmarked) [Compound 2-360]
- IC50 [1]: 15.8 µM
- IC50 [2]: 20 µM
- IC50 (FMP 37 SEQ ID No 9): 20 µM
- IC50 (Avena HPPD SEQ ID No 2): 3.98 µM

SMILES: COCc1nnc(NC(=O)c2ccc(C(F)(F)F)c(S(C)(=O)=O)c2C)o1 [Compound 5-145]
- IC50 [1]: < 5.01 µM
- IC50 [2]: < 5.01 µM
- IC50 (FMP 37 SEQ ID No 9): 10 µM
- IC50 (Avena HPPD SEQ ID No 2): 3.16 µM

SMILES: Cc1nnc(NC(=O)c2ccc(C(F)(F)F)nc2C)o1 [Compound 7-132]
- IC50 [1]: 200 µM
- IC50 [2]: 251 µM
- IC50 (FMP 37 SEQ ID No 9): 7.94 µM
- IC50 (Avena HPPD SEQ ID No 2): 15.8 µM

SMILES: CS(=O)(=O)c1ccc(C(=O)C2C(=O)CCCC2=O)c(Cl)c1COCC(F)(F)F [tembotrione]
- appearance of shoots under HPPD inhibitor selection [3]: normal greening
- appearance of shoots under HPPD inhibitor selection (wild-type soybean shoots): entirely bleached
- tolerance of variant PfHPPDEvo40 compared to PfHPPD336W (brown pigment formation, titration of extract) (PfHPPDEvo40): improved tolerance

SMILES: Cc1c(C(=O)Nc2nnc(C3CC3)o2)ccc(C(F)(F)F)c1[S+](C)[O-] (centres unmarked) [Compound 6-37]
- IC50 [1]: 126 µM
- IC50 [2]: 158 µM
- IC50 (FMP 37 SEQ ID No 9): 158 µM
- IC50 (Avena HPPD SEQ ID No 2): 39.8 µM

SMILES: CS(=O)(=O)c1cc(C(F)(F)F)ccc1C(=O)C(C#N)C(=O)C1CC1 (centres unmarked) [diketonitrile]
- tolerance of variant PfHPPDEvo40 compared to PfHPPD336W (brown pigment formation, titration of extract) (PfHPPDEvo40): improved tolerance
